Assay results: patent US5158940A (priority 1990, dated 1992)
Counter-ions that a name gives are not always drawn.

Assays:
[1] = tested on: rheumatoid arthritis; format: in vivo, person
From the text: A person was initially diagnosed in 1975 with polyarthritis and an elevated serum rheumatoid factor level. Since then, the patient had required almost uninterrupted treatment with either supraphysiologic doses of steroid or remission-inducing agents. These included hydroxycloroquine, gold salts, cytoxan and most recently, penicillamine together with prednisone.
Prior to initiating suramin therapy, penicillamine and prednisone were discontinued and the patient was placed on physiologic replacement doses of hydrocortisone. […] Their serum rheumatoid factor titer was 1:2560. Serum antinuclear antibodies were absent and both anti-DNA screen and LE cell test were negative.

[2] = in vivo; cited from earlier work
[3] = tested on: reverse transcriptase enzyme; settings: in vitro; JAMA 258 p. 1347-51 (1987); cited from earlier work
[4] = tested on: human immunodeficiency virus (HIV); settings: in vitro; JAMA 258 p. 1347-51 (1987); cited from earlier work
[5] = tested on: various growth factors; settings: in vitro; J. Cellular Physiology 132 p. 143-8 (1987); cited from earlier work
[6] = tested on: cytoplasmic and intranuclear enzymes; settings: Cancer Res. 47 p. 4694-8 (1987) and J. Clin. Onc. 7 p. 499-508 (1989); cited from earlier work
[7] = tested on: parasitic infections; settings: one gram bolus parenterally once per week for six weeks, total six grams; cited from earlier work
[8] = nine months after initial start, no suramin after third cycle at six months
[9] = treatment period plus three months afterwards without suramin

Q: What does the source list for `Cc1ccc(C(=O)Nc2ccc(S(=O)(=O)O)c3cc(S(=O)(=O)O)cc(S(=O)(=O)O)c23)cc1NC(=O)c1cccc(NC(=O)Nc2cccc(C(=O)Nc3cc(C(=O)Nc4ccc(S(=O)(=O)O)c5cc(S(=O)(=O)O)cc(S(=O)(=O)O)c45)ccc3C)c2)c1` [Suramin, hexasodium salt of 8,8'-(carbonyl-bis(imino-3,1-phenylenecarbonylimino(4-methyl-3,1-phenylene)carbonylimo))bis-1,3,5-naphthalenetrisulfonic acid]?
A: formal rheumatologic evaluation (inflammatory joint disease, synovial proliferation) ([1]; at the end of therapy): virtually no inflammatory joint disease with only minimal synovial proliferation in the ulnar carpal region of their right wrist; joint abnormalities in follow up hand photograph ([1]; follow up hand photograph): failed to show any significant change in their minimal joint abnormalities; hematologic, hepatic or renal toxicity ([1]; in vivo): did not experience any significant hematologic, hepatic or renal toxicity; size of rheumatoid nodules ([1]; initially documented after three months, more pronounced at five months): regression in the size of their multiple rheumatoid nodules; arthritic symptoms at nine months [1, 8]: continued to remain without arthritic symptoms; size of remaining rheumatoid nodules [1, 8]: remained unchanged; disappearance of rheumatoid nodules ([1]; start of third cycle at five months): complete disappearance of as many as a third; arthritic symptoms [1, 9]: improvement in their arthritic symptoms; synovial swelling [1, 9]: decreased synovial swelling; plasma half-life [2]: 45 to 55 days; ability to inhibit the reverse transcriptase enzyme [3]: inhibit the reverse transcriptase enzyme; ability to revert the cytopathic effect of HIV [4]: revert the cytopathic effect of human immunodeficiency virus (HIV) in vitro; ability to inhibit the activity of various growth factors [5]: inhibit the activity of various growth factors in vitro; binding to a variety of cytoplasmic and intranuclear enzymes [6]: bind to a variety of cytoplasmic and intranuclear enzymes; effectiveness for treating parasitic infections [7]: generally effective for treating parasitic infections
